Usually IC50 stands for the concentration that inhibits the measured activity by half.

IC50 data for twelve compounds are collected here from patent publication US9006187B2, “Thiophene derivative as SGLT2 inhibitor and pharmaceutical composition comprising same” (Green Cross Corporation, priority 2010, dated 2015).

Chain of Human SGLT2 (hSGLT2) (P31639 whole entry): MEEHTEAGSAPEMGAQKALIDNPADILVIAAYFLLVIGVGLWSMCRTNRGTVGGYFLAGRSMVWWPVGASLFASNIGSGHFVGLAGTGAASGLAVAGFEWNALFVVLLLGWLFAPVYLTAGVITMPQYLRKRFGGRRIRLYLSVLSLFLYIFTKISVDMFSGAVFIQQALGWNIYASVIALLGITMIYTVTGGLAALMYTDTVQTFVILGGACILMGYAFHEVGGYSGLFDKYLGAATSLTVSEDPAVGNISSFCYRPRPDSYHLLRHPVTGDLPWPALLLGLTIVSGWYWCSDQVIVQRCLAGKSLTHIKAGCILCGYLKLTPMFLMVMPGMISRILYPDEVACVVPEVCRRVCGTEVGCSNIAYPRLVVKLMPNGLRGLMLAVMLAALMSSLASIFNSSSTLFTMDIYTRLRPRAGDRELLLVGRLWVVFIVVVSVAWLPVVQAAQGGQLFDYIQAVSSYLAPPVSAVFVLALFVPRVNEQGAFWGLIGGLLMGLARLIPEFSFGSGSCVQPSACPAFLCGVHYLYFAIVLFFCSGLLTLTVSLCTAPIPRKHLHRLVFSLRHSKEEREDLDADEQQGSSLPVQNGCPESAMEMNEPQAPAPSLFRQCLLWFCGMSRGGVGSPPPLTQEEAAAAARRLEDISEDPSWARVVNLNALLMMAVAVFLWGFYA

The test addresses Human SGLT2 (hSGLT2) (Homo sapiens (Human), UniProt P31639). As to the kind of experiment: Inhibitory effects on human SGLT2 activities: sodium-dependent 14C-AMG glucose transport (uptake) assay in CHO cells expressing hSGLT2. Conditions: read-out: hSGLT2 Inhibitory Activity IC50; CHO cells stably expressing hSGLT2; 14C-AMG uptake, 37° C., 2 h; single determinations for examples; in-house assay.
`OC[C@H]1O[C@@H](c2cc(Cc3ccc(-c4ccc(F)cc4)s3)c(Cl)s2)[C@H](O)[C@@H](O)[C@@H]1O` [Example 3, (2R,3R,4S,5S,6R)-2-(5-chloro-4-((5-(4-fluorophenyl)thiophen-2-yl)methyl)thiophen-2-yl)-6-(hydroxymethyl)-tetrahydro-2H-pyran-3,4,5-triol]: the IC50 is 91.3 nM. The figure for `Cc1sc([C@@H]2O[C@H](CO)[C@@H](O)[C@H](O)[C@H]2O)cc1Cc1ccc(-c2ccc(F)cc2)s1` [Example 21, (2R,3R,4S,5S,6R)-2-(4-((5-(4-fluorophenyl)thiophen-2-yl)methyl)-5-methylthiophen-2-yl)-6-(hydroxymethyl)-tetrahydro-2H-pyran-3,4,5-triol] is 21.1 nM.

As to `CCOc1ccc(Cc2cc([C@@H]3O[C@H](CO)[C@@H](O)[C@H](O)[C@H]3O)sc2Cl)cc1` [Example 1, (2R,3R,4S,5S,6R)-2-(5-chloro-4-(4-ethoxybenzyl)thiophen-2-yl)-6-(hydroxymethyl)-tetrahydro-2H-pyran-3,4,5-triol], the IC50 worked out at 34.6 nM. Take `OC[C@H]1O[C@@H](c2cc(Cc3ccc(OC4CCCC4)cc3)c(Cl)s2)[C@H](O)[C@@H](O)[C@@H]1O` [Example 11, (2R,3R,4S,5S,6R)-2-(5-chloro-4-(4-(cyclopentyloxy)benzyl)thiophen-2-yl)-6-(hydroxymethyl)-tetrahydro-2H-pyran-3,4,5-triol]: the IC50 came out at 57.2 nM. Regarding `CCCc1ccc(Cc2cc([C@@H]3O[C@H](CO)[C@@H](O)[C@H](O)[C@H]3O)sc2Cl)cc1` [Example 18, (2R,3R,4S,5S,6R)-2-(5-chloro-4-(4-propylbenzyl)thiophen-2-yl)-6-(hydroxymethyl)-tetrahydro-2H-pyran-3,4,5-triol], the IC50 amounted to 10.3 nM. Then `CCc1ccc(Cc2sc([C@@H]3O[C@H](CO)[C@@H](O)[C@H](O)[C@H]3O)cc2C)cc1` [Example 25, (2R,3R,4S,5S,6R)-2-(5-(4-ethylbenzyl)-4-methylthiophen-2-yl)-6-(hydroxymethyl)tetrahydro-2H-pyran-3,4,5-triol], with 24.8 nM; and `COc1ccc(Cc2cc([C@@H]3O[C@H](CO)[C@@H](O)[C@H](O)[C@H]3O)sc2C)cc1` [Example 20, (2R,3S,4S,5R,6R)-2-(hydroxymethyl)-6-(4-(4-methoxybenzyl)-5-methylthiophen-2-yl)-tetrahydro-2H-pyran-3,4,5-triol], with 11.5 nM. Then `Cc1sc([C@@H]2O[C@H](CO)[C@@H](O)[C@H](O)[C@H]2O)cc1Cc1ccc(O)cc1` [Example 23, (2R,3R,4S,5S,6R)-2-(4-(4-hydroxybenzyl)-5-methylthiophen-2-yl)-6-(hydroxymethyl)-tetrahydro-2H-pyran-3,4,5-triol], with 50.2 nM; and `CCSc1ccc(Cc2cc([C@@H]3O[C@H](CO)[C@@H](O)[C@H](O)[C@H]3O)sc2Cl)cc1` [Example 7, (2R,3R,4S,5S,6R)-2-(5-chloro-4-(4-(ethylthio)benzyl)thiophen-2-yl)-6-(hydroxymethyl)-tetrahydro-2H-pyran-3,4,5-triol], with 48.4 nM. In the case of `CCOCCOc1ccc(Cc2cc([C@@H]3O[C@H](CO)[C@@H](O)[C@H](O)[C@H]3O)sc2Cl)cc1` [Example 13, (2R,3R,4S,5S,6R)-2-(5-chloro-4-(4-(2-ethoxyethoxy)benzyl)thiophen-2-yl)-6-(hydroxymethyl)-tetrahydro-2H-pyran-3,4,5-triol], the IC50 came out at 70.7 nM. As for `CCc1ccc(Cc2cc([C@@H]3O[C@H](CO)[C@@H](O)[C@H](O)[C@H]3O)sc2Cl)cc1` [Example 17, (2R,3R,4S,5S,6R)-2-(5-chloro-4-(4-ethylbenzyl)thiophen-2-yl)-6-(hydroxymethyl)-tetrahydro-2H-pyran-3,4,5-triol], the IC50 turned out to be 4.47 nM.

Consider `COc1ccc(Cc2cc([C@@H]3O[C@H](CO)[C@@H](O)[C@H](O)[C@H]3O)sc2Cl)cc1` [Example 2, (2R,3R,4S,5S,6R)-2-(5-chloro-4-(4-methoxybenzyl)thiophen-2-yl)-6-(hydroxymethyl)-tetrahydro-2H-pyran-3,4,5-triol], for which the IC50 worked out at 86.5 nM.
